The target in experiment [1] is T1, human V1a receptor (Homo sapiens, UniProt P37288).
T1 construct: expressed in transfected cells; host or cells: CHO K1 (ATCC), also stably transfected with a modified aequorin
Kind of experiment: Cellular in vitro assay for vasopressin receptor activity, V1a cell line (aequorin luminescence). The format is cell-based. Conditions: for IC50: CHO cell line transfected with human V1a receptor, agonist [Arg8]-vasopressin at EC50 concentration, read-out: IC50hV1a; for ratio IC50 hV2/hV1a: ratio of the IC50 on human V2 to the IC50 on human V1a. On the procedure: (§1) B-1. Cellular In Vitro Assay for Determining Vasopressin Receptor Activity
(§2) The identification of agonists and antagonists of the V1a and V2 vasopressin receptors from humans, rats and dogs as well as the quantification of the activity of the compounds of the invention is carried out using recombinant cell lines. These cell lines originally derive from a hamster's ovary epithelial cell (Chinese Hamster Ovary, CHO K1, ATCC: American Type Culture Collection, Manassas, Va. 20108, USA). The test cell lines constitutively express the human, rat or dog V1a or V2 receptors. In case of the Gαq-coupled V1a receptors, cells are also stably transfected with a modified form of the calcium-sensitive photoproteins aequorin (human and rat V1a) or obelin (dog V1a), which, after reconstitution with the cofactor coelenterazine, emit light when there are increases in free calcium concentrations [Rizzuto R, Simpson A W, Brini M, Pozzan T, Nature 358, 325-327 (1992); Illarionov B A, Bondar V S, Illarionova V A, Vysotski E S, Gene 153 (2), 273-274 (1995)]. The resulting vasopressin receptor cells react to stimulation of the recombinantly expressed V1a receptors by intracellular release of calcium ions, which can be quantified by the resulting photoprotein luminescence. The Gs-coupled V2 receptors are stably transfected into cell lines expressing the gene for firefly luciferase under control of a CRE-responsible promoter. Activation of V2 receptors induces the activation of the CRE-responsive promoter via cAMP increase, thereby inducing the expression of firefly luciferase. The light emitted by photoproteins of V1a cell lines as well as the light emitted by firefly luciferase of V2 cell lines corresponds to the activation or inhibition of the respective vasopressin receptor. The bioluminescence of the cell lines is detected using a suitable luminometer [Milligan G, Marshall F, Rees S, Trends in Pharmacological Sciences 17, 235-237 (1996)].
Vasopressin V1a Receptor Cell Lines:
On the day before the assay, the cells are plated out in culture medium (DMEM/F12, 2% FCS, 2 mM glutamine, 10 mM HEPES, 5 μg/ml coelenterazine) in 384-well microtiter plates and kept in a cell incubator (96% humidity, 5% v/v CO2, 37° C.). On the day of the assay, test compounds in various concentrations are placed for 10 minutes in the wells of the microtiter plate before the agonist [Arg^8]-vasopressin at EC50 concentration is added. The resulting light signal is measured immediately in a luminometer.
(§3) Table 1A below lists individual IC50 values for the compounds of the invention (including racemic mixtures as well as separated enantiomers) that were obtained from cell lines transfected with the human V1a or V2 receptor: […]

Experiment [2] deals with T2, human V2 receptor (Homo sapiens, UniProt P30518).
T2 construct: expressed in transfected cells; host or cells: CHO K1 (ATCC) line expressing firefly luciferase under a CRE-responsive promoter
T2 sequence (P30518 whole entry): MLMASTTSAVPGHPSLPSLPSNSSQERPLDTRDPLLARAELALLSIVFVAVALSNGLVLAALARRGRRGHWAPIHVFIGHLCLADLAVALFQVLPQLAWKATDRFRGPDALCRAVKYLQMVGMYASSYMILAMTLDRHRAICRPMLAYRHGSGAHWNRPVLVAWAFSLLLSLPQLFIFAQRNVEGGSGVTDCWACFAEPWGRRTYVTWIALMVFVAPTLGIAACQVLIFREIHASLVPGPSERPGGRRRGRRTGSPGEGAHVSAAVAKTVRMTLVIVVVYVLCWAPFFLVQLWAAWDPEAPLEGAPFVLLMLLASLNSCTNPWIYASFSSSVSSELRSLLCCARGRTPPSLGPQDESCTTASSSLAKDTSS
Kind of experiment: Cellular in vitro assay for vasopressin receptor activity, V2 cell line (CRE-luciferase). Conditions: CHO cell line transfected with human V2 receptor; agonist [Arg8]-vasopressin at EC50 concentration, 3 hours; read-out: IC50hV2. Type of experiment: cell-based. On the procedure:
as §1, §2
Vasopressin V2 Receptor Cell Lines:
On the day before the assay, the cells are plated out in culture medium (DMEM/F12, 2% FCS, 2 mM glutamine, 10 mM HEPES) in 384-well microtiter plates and kept in a cell incubator (96% humidity, 5% v/v CO2, 37° C.). On the day of the assay, test compounds in various concentrations and the agonist [Arg^8]-vasopressin at EC50 concentration are added together to the wells, and plates are incubated for 3 hours in a cell incubator. Upon addition of the cell lysis reagent Triton™ and the substrate luciferin, luminescence of firefly luciferase is measured in a luminometer.
as §3

T1 sequence (P37288 whole entry): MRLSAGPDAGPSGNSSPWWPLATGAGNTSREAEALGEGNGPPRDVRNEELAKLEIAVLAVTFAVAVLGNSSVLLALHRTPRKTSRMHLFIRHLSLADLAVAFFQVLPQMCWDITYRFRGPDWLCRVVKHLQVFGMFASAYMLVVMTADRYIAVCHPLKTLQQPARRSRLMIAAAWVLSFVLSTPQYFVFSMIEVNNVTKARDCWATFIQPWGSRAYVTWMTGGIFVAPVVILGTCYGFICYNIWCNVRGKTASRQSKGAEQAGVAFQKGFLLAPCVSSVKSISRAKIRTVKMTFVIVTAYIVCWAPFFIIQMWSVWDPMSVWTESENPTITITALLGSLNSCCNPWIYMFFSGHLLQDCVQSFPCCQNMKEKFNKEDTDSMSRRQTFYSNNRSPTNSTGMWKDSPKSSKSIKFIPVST

As for `CC(F)(F)c1nc(Cn2nc(-c3ccc(Cl)cc3)n(C[C@H](O)C(F)(F)F)c2=O)nn1-c1cnccc1C(F)(F)F` [Example 57, 5-(4-Chlorophenyl)-2-({5-(1,1-difluoroethyl)-1-[4-(trifluoromethyl)pyridin-3-yl]-1H-1,2,4-triazol-3-yl}methyl)-4-[(2S)-3,3,3-trifluoro-2-hydroxypropyl]-2,4-dihydro-3H-1,2,4-triazol-3-one], in experiment [1], the IC50 was 2 nM and the “ratio IC50 hV2/hV1a” value came out at 12.3. In addition, the IC50 in experiment [2] was 24.5 nM.
On the same counts, the results for `CCc1cccc(C)c1-n1nc(Cn2nc(-c3ccc(Cl)cc3)n(C[C@H](O)C(F)(F)F)c2=O)nc1C(C)F` (mixture of isomers) [Example 48, 5-(4-Chlorophenyl)-2-({1-(2-ethyl-6-methylphenyl)-5-[1-fluoroethyl]-1H-1,2,4-triazol-3-yl}methyl)-4-[(2S)-3,3,3-trifluoro-2-hydroxypropyl]-2,4-dihydro-3H-1,2,4-triazol-3-one] are 30.5 nM, 0.2 and 4.9 nM.
On the same counts, the results for `CC(F)(F)c1nc(Cn2nc(-c3ccc(Cl)cc3)n(C[C@H](O)C(F)(F)F)c2=O)nn1-c1ncccc1Cl` [Example 58, 5-(4-Chlorophenyl)-2-{[1-(3-chloropyridin-2-yl)-5-(1,1-difluoroethyl)-1H-1,2,4-triazol-3-yl]methyl}-4-[(2S)-3,3,3-trifluoro-2-hydroxypropyl]-2,4-dihydro-3H-1,2,4-triazol-3-one] are 1 nM, 3.4 and 3.4 nM.
On the same counts, the results for `CC(F)c1nc(Cn2nc(-c3ccc(Cl)cc3)n(C[C@H](O)C(F)(F)F)c2=O)nn1-c1ccccc1S(N)(=O)=O` (mixture of isomers) [Example 41, 2-{3-({3-(4-Chlorophenyl)-5-oxo-4-[(2S)-3,3,3-trifluoro-2-hydroxypropyl]-4,5-dihydro-1H-1,2,4-triazol-1-yl}methyl)-5-[1-fluoroethyl]-1H-1,2,4-triazol-1-yl}benzenesulfonamide] are 84.8 nM, 3.5 and 292 nM.
As for `O=c1n(Cc2nc(C(F)F)n(-c3cccc(F)c3)n2)nc(-c2ccc(Cl)cc2)n1C[C@H](O)C(F)(F)F` [Example 52, 5-(4-Chlorophenyl)-2-{[5-(difluoromethyl)-1-(3-fluorophenyl)-1H-1,2,4-triazol-3-yl]methyl}-4-[(2S)-3,3,3-trifluoro-2-hydroxypropyl]-2,4-dihydro-3H-1,2,4-triazol-3-one], in experiment [1], the IC50 came to 10.8 nM and the “ratio IC50 hV2/hV1a” value was 0.5. Further, the IC50 in experiment [2] was found to be 5.92 nM.
In the same order, the values of `NCC(F)(F)c1nc(Cn2nc(-c3ccc(Cl)cc3)n(C[C@H](O)C(F)(F)F)c2=O)nn1-c1ccccc1Cl.O=CO` [Example 76, 2-{[5-(2-Amino-1,1-difluoroethyl)-1-(2-chlorophenyl)-1H-1,2,4-triazol-3-yl]methyl}-5-(4-chlorophenyl)-4-[(2S)-3,3,3-trifluoro-2-hydroxypropyl]-2,4-dihydro-3H-1,2,4-triazol-3-one] are 0.91 nM, 3.5 and 3.15 nM.
On the same counts, the results for `CC(F)(F)c1nc(Cn2nc(-c3ccc(Cl)cc3)n(C[C@H](O)C(F)(F)F)c2=O)nn1-c1cnccc1Cl` [Example 54, 5-(4-Chlorophenyl)-2-{[1-(4-chloropyridin-3-yl)-5-(1,1-difluoroethyl)-1H-1,2,4-triazol-3-yl]methyl}-4-[(2S)-3,3,3-trifluoro-2-hydroxypropyl]-2,4-dihydro-3H-1,2,4-triazol-3-one] are 0.93 nM, 12.2 and 11.2 nM.
Consider `O=c1n(Cc2nc(C(F)(F)C3(O)CCCC3)n(-c3ccccc3Cl)n2)nc(-c2ccc(Cl)cc2)n1C[C@H](O)C(F)(F)F` [Example 75, 5-(4-Chlorophenyl)-2-({1-(2-chlorophenyl)-5-[difluoro(1-hydroxycyclopentyl)methyl]-1H-1,2,4-triazol-3-yl}methyl)-4-[(2S)-3,3,3-trifluoro-2-hydroxypropyl]-2,4-dihydro-3H-1,2,4-triazol-3-one], for which the IC50 in experiment [1] was 0.85 nM; in experiment [2], 5.4 nM. Moreover, the “ratio IC50 hV2/hV1a” value in experiment [1] is on record as 6.4.
On the same counts, the results for `CC(F)c1nc(Cn2nc(-c3ccc(Cl)cc3)n(C[C@H](O)C(F)(F)F)c2=O)nn1-c1cccc(Cl)c1` (mixture of isomers) [Example 16, 5-(4-Chlorophenyl)-2-({1-(3-chlorophenyl)-5-[1-fluoroethyl]-1H-1,2,4-triazol-3-yl}methyl)-4-[(2S)-3,3,3-trifluoro-2-hydroxypropyl]-2,4-dihydro-3H-1,2,4-triazol-3-one] are 16 nM, 0.58 nM and 0.0.
In the same order, the values of `Cc1ccccc1-n1nc(Cn2nc(-c3ccc(Cl)cc3)n(C[C@H](O)C(F)(F)F)c2=O)nc1C(C)F` (single isomer, unassigned) [Example 36] are 0.65 nM, 0.98 nM and 1.5.
On the same counts, the results for `CC(F)(F)c1nc(Cn2nc(-c3ccc(Cl)cc3)n(C[C@H](O)C(F)(F)F)c2=O)nn1-c1ccccc1OC(F)(F)F` [Example 61, 5-(4-Chlorophenyl)-2-({5-(1,1-difluoroethyl)-1-[2-(trifluoromethoxy)phenyl]-1H-1,2,4-triazol-3-yl}methyl)-4-[(2S)-3,3,3-trifluoro-2-hydroxypropyl]-2,4-dihydro-3H-1,2,4-triazol-3-one] are 4.15 nM, 44.5 nM and 10.7.
Take `CC(F)c1nc(Cn2nc(-c3ccc(Cl)cc3)n(C[C@H](O)C(F)(F)F)c2=O)nn1-c1cccc(Cl)c1` (single isomer, unassigned) [Example 18]: in experiment [1], the IC50 amounted to 60 nM and the “ratio IC50 hV2/hV1a” value is 0.1. Also, the IC50 in experiment [2] turned out to be 3.85 nM.
Turning to `CC(F)c1nc(Cn2nc(-c3ccc(Cl)cc3)n(C[C@H](O)C(F)(F)F)c2=O)nn1-c1ccccc1C#N` (single isomer, unassigned) [Example 39], in experiment [1], the IC50 was found to be 22.2 nM and the “ratio IC50 hV2/hV1a” value was 11.7. Also, in experiment [2], the IC50 worked out at 261 nM.
In the same order, the values of `CC(C)c1ccccc1-n1nc(Cn2nc(-c3ccc(Cl)cc3)n(C[C@H](O)C(F)(F)F)c2=O)nc1C(C)(F)F` [Example 72, 5-(4-Chlorophenyl)-2-({5-(1,1-difluoroethyl)-1-[2-(propan-2-yl)phenyl]-1H-1,2,4-triazol-3-yl}methyl)-4-[(2S)-3,3,3-trifluoro-2-hydroxypropyl]-2,4-dihydro-3H-1,2,4-triazol-3-one] are 31 nM, 1.1 and 34.7 nM.
For `CC(F)(F)c1nc(Cn2nc(-c3ccc(Cl)cc3)n(C[C@H](O)C(F)(F)F)c2=O)nn1-c1ccccc1OC(F)F` [Example 63, 5-(4-Chlorophenyl)-2-({5-(1,1-difluoroethyl)-1-[2-(difluoromethoxy)phenyl]-1H-1,2,4-triazol-3-yl}methyl)-4-[(2S)-3,3,3-trifluoro-2-hydroxypropyl]-2,4-dihydro-3H-1,2,4-triazol-3-one], the IC50 came to 2.1 nM in experiment [1] and 6.95 nM in experiment [2]. Besides, the “ratio IC50 hV2/hV1a” value in experiment [1] is 3.3.

The values above are taken from patent publication US10525041B2, “Fluoroalkyl-substituted aryltriazole derivatives and uses thereof” (BAYER PHARMA AKTIENGESELLSCHAFT, priority 2016, dated 2020).
